In US20200407398A1, “Short Proline-Rich Lipopeptide Potentiates Minocycline and Rifampicin Against Multidrug-and Extensively Drug-Resistant Pseudomonas Aeruginosa” (priority 2018, published 2020):
Peptide text beside a SMILES is read from it. * marks the point of attachment. Acetyl(1-adamantyl) = O=C(CC12CC3CC(CC(C3)C1)C2)*; Octanoyl = CCCCCCCC(=O)*

Tests used:
Assay type in all cases: cell-based
[1] = system: A. baumannii CAN-ICU 63169
Protocol: (§1) The synthesized SPRLPs were evaluated for their antibacterial potency against a panel of Gram-positive and Gram-negative bacteria (Tables 2 & 3). Some of the included pathogens were collected from patients visiting or admitted to participating Canadian hospitals through the CAN-ICU (27) and CANWARD (28) national surveillance studies. Antibacterial activity was assessed using minimum inhibitory concentration (MIC) against various clinical pathogens.
(§2) Isolates used in this study were either obtained from the American Type Culture Collection (ATCC), the Canadian National Intensive Care Unit (CAN-ICU) surveillance study (27) or the Canadian Ward Surveillance (CANWARD) study (28). Clinical isolates belonging to the CAN-ICU and CANWARD studies were recovered from patients suffering a presumed infectious disease entering or admitted in a participating medical center across Canada during the time of study. MDR P. aeruginosa strains in this study refer to those that are resistant to aminoglycosides, fluoroquinolones, cephalosporins, and carbapenems while XDR strains are those that are resistant to aminoglycosides, fluoroquinolones, cephalosporins, carbapenems, aztreonam and penicillin+β-lactamase inhibitor combination (39, 40).
(§3) Microbroth dilution susceptibility test following the Clinical and Laboratory Standards Institute (CLSI) guidelines (32) was performed to assess the in vitro antibacterial activity of SPRLPs. Overnight grown bacterial cultures were diluted in saline to achieve a 0.5 McFarland turbidity, followed by 1:50 dilution in Mueller-Hinton broth (MHB) for inoculation to a final concentration of 5×10^5 colony forming units/mL. The assay was done on a 96-well plate to which the agents of interest were 2-fold serially diluted in MHB and incubated with equal volumes of inoculum at 37° C. for 18 hours. MIC was determined as the lowest concentration to inhibit visible bacterial growth in form of turbidity, which was confirmed using EMax Plus microplate reader (Molecular Devices, USA) at a wavelength of 590 nm. The well containing MHB broth with or without bacterial cells was used as positive or negative control, respectively.

E. coli ATCC 25922 = system: E. coli ATCC 25922
Protocol: as §1, §2, §3

[2] = system: E. coli CAN-ICU 61714 (gentamicin-resistant)
Protocol: as §1, §2, §3

[3] = system: E. coli CAN-ICU 63074 (amikacin-intermediate resistant)
Protocol: as §1, §2, §3

[4] = system: E. coli CANWARD-2011 97615 (gentamicin-, tobramycin-, ciprofloxacin-resistant) aac(3′)iia
Protocol: as §1, §2, §3

E. faecalis ATCC 29212 = system: E. faecalis ATCC 29212
Protocol: as §1, §2, §3

E. faecium ATCC 27270 = system: E. faecium ATCC 27270
Protocol: as §1, §2, §3

K. pneumoniae ATCC 13883 = system: K. pneumoniae ATCC 13883
Protocol: as §1, §2, §3

P. aeruginosa ATCC 27853 = system: P. aeruginosa ATCC 27853
Protocol: as §1, §2, §3

[5] = system: P. aeruginosa CAN-ICU 62308 (gentamicin-resistant)
Protocol: as §1, §2, §3

[6] = system: P. aeruginosa CANWARD-2011 96846 (gentamicin-, tobramycin-resistant)
Protocol: as §1, §2, §3

[7] = system: P. aeruginosa wild-type PAO1
Protocol: as §1, §2, §3

S. aureus ATCC 29213 = system: S. aureus ATCC 29213
Protocol: as §1, §2, §3

[8] = system: S. maltophilia CAN-ICU 62584
Protocol: as §1, §2, §3

[9] = system: methicillin-resistant S. aureus ATCC 33592
Protocol: as §1, §2, §3

[10] = system: methicillin-resistant S. epidermidis CAN-ICU 61589 (ceftazidime-resistant); details: methicillin-resistant CAN-ICU 61589 (ceftazidime-resistant)
Protocol: as §1, §2, §3

[11] = system: methicillin-susceptible Staphylococcus epidermidis CANWARD-2008 81388; details: methicillin-susceptible CANWARD-2008 81388
Protocol: as §1, §2, §3

pig erythrocytes = details: red cells of porcine
Protocol: Since PRAMPs are able to kill bacteria through membrane lysis, it is imperative to evaluate whether these synthesized SPRLPs also lyse eukaryotic membranes. The ability to lyse porcine red blood cells was assessed and the minimum concentration to result in 5% erythrocyte hemolysis (MHC) was reported (Tables 2 & 3). […] This greatly limits their therapeutic potential. […] However, all other SPRLPs were non-hemolytic (MHC>512 μg/mL).
The ability of SPRLPs to lyse eukaryotic red blood cells were quantified by the amount of hemoglobin released upon incubation with pig erythrocytes, following published protocols (37, 39). Fresh pig blood drawn from pig antecubital vein was centrifuged at 1000×g for 5 minutes at 4° C., washed with PBS three times and re-suspended in the same buffer, consecutively. Then, agents of interest were 2-fold serially diluted in PBS on 96-well plate and mixed with equal volumes of erythrocyte solution. Post 1-hour incubation at 37° C., intact cells were pelleted by centrifugation at 1000×g for 5 minutes at 4° C. The supernatant was then transferred to a new 96-well plate. The hemoglobin released was measured via EMax Plus microplate reader (Molecular Devices, USA) at 570 nm wavelength. Erythrocytes in PBS with or without 0.1% Triton X-100 was used as negative or positive control, respectively.

Row | SMILES | MIC [1] | MIC (E. coli ATCC 25922) | MIC [2] | MIC [3] | MIC [4] | MIC (E. faecalis ATCC 29212) | MIC (E. faecium ATCC 27270) | MIC (K. pneumoniae ATCC 13883) | MIC (P. aeruginosa ATCC 27853) | MIC [5] | MIC [6] | MIC [7] | MIC (S. aureus ATCC 29213) | MIC [8] | MIC [9] | MIC [10] | MIC [11] | MHC (minimum concentration that resulted in 5% red blood cell hemolysis) (pig erythrocytes)
1 | N=C(N)NCCC[C@H](NC(=O)[C@@H]1CCCN1C(=O)CNC(=O)[C@@H]1CCCN1C(=O)[C@H](CCCNC(=N)N)NC(=O)[C@@H]1CCCN1C(=O)CC12CC3CC(CC(C3)C1)C2)C(=O)N1CCC[C@H]1C(N)=O [Ad-PGP, Adamantyl-CH2CO-PRPGPRP-NH2] ({Acetyl(1-adamantyl)}-PRPGPRP-NH2) | >128 µg/mL | >128 µg/mL | >128 µg/mL | >128 µg/mL | >128 µg/mL | >128 µg/mL | >128 µg/mL | >128 µg/mL | >128 µg/mL | >128 µg/mL | >128 µg/mL | >512 µg/mL | >128 µg/mL | >128 µg/mL | >128 µg/mL | >128 µg/mL | >128 µg/mL | >512 µg/mL
2 | CC(C)C[C@H](NC(=O)[C@@H]1CCCN1C(=O)[C@H](CCCNC(=N)N)NC(=O)[C@@H]1CCCN1C(=O)CC12CC3CC(CC(C3)C1)C2)C(=O)N1CCC[C@H]1C(=O)N[C@@H](CCCNC(=N)N)C(=O)N1CCC[C@H]1C(N)=O [Ad-PLP, Adamantyl-CH2CO-PRPLPRP-NH2] ({Acetyl(1-adamantyl)}-PRPLPRP-NH2) | >128 µg/mL | >128 µg/mL | >128 µg/mL | >128 µg/mL | >128 µg/mL | >128 µg/mL | >128 µg/mL | >128 µg/mL | >128 µg/mL | >128 µg/mL | >128 µg/mL | >512 µg/mL | >128 µg/mL | >128 µg/mL | >128 µg/mL | >128 µg/mL | >128 µg/mL | >512 µg/mL

More lines, main results first:

Row | MIC [1] | MIC (E. coli ATCC 25922) | MIC [2] | MIC [3] | MIC [4] | MIC (E. faecalis ATCC 29212) | MIC (E. faecium ATCC 27270) | MIC (K. pneumoniae ATCC 13883) | MIC (P. aeruginosa ATCC 27853) | MIC [5] | MIC [6] | MIC [7] | MIC (S. aureus ATCC 29213) | MIC [8] | MIC [9] | MIC [10] | MIC [11] | SMILES | MHC (minimum concentration that resulted in 5% red blood cell hemolysis) (pig erythrocytes)
3 | >128 µg/mL | >128 µg/mL | >128 µg/mL | >128 µg/mL | >128 µg/mL | >128 µg/mL | >128 µg/mL | >128 µg/mL | >128 µg/mL | >128 µg/mL | >128 µg/mL | >512 µg/mL | >128 µg/mL | >128 µg/mL | >128 µg/mL | >128 µg/mL | >128 µg/mL | N=C(N)NCCC[C@H](NC(=O)[C@@H]1CCCN1C(=O)[C@H](Cc1c[nH]c2ccccc12)NC(=O)[C@@H]1CCCN1C(=O)[C@H](CCCNC(=N)N)NC(=O)[C@@H]1CCCN1C(=O)CC12CC3CC(CC(C3)C1)C2)C(=O)N1CCC[C@H]1C(N)=O [Ad-PWP, Adamantyl-CH2CO-PRPWPRP-NH2] ({Acetyl(1-adamantyl)}-PRPWPRP-NH2) | >512 µg/mL
4 | >128 µg/mL | >128 µg/mL | >128 µg/mL | >128 µg/mL | >128 µg/mL | >128 µg/mL | >128 µg/mL | >128 µg/mL | >128 µg/mL | >128 µg/mL | >128 µg/mL | >512 µg/mL | >128 µg/mL | >128 µg/mL | >128 µg/mL | >128 µg/mL | >128 µg/mL | CCCCCCCC(=O)N1CCC[C@H]1C(=O)N[C@@H](CCCNC(=N)N)C(=O)N1CCC[C@H]1C(=O)NCC(=O)N1CCC[C@H]1C(=O)N[C@@H](CCCNC(=N)N)C(=O)N1CCC[C@H]1C(N)=O [Compound C8-PGP, CH3(CH2)6CO-PRPGPRP-NH2] (Octanoyl-PRPGPRP-NH2) | >512 µg/mL
5 | >128 µg/mL | >128 µg/mL | >128 µg/mL | >128 µg/mL | >128 µg/mL | >128 µg/mL | >128 µg/mL | >128 µg/mL | >128 µg/mL | >128 µg/mL | >128 µg/mL | >512 µg/mL | >128 µg/mL | >128 µg/mL | >128 µg/mL | >128 µg/mL | >128 µg/mL | CCCCCCCC(=O)N1CCC[C@H]1C(=O)N[C@@H](CCCNC(=N)N)C(=O)N1CCC[C@H]1C(=O)N[C@@H](CC(C)C)C(=O)N1CCC[C@H]1C(=O)N[C@@H](CCCNC(=N)N)C(=O)N1CCC[C@H]1C(N)=O [Compound C8-PLP, CH3(CH2)6CO-PRPLPRP-NH2] (Octanoyl-PRPLPRP-NH2) | >512 µg/mL
6 | >128 µg/mL | >128 µg/mL | >128 µg/mL | >128 µg/mL | >128 µg/mL | >128 µg/mL | >128 µg/mL | >128 µg/mL | >128 µg/mL | >128 µg/mL | >128 µg/mL | >512 µg/mL | >128 µg/mL | >128 µg/mL | >128 µg/mL | >128 µg/mL | >128 µg/mL | CCCCCCCC(=O)N1CCC[C@H]1C(=O)N[C@@H](CCCNC(=N)N)C(=O)N1CCC[C@H]1C(=O)N[C@@H](Cc1c[nH]c2ccccc12)C(=O)N1CCC[C@H]1C(=O)N[C@@H](CCCNC(=N)N)C(=O)N1CCC[C@H]1C(N)=O [Compound C8-PWP, CH3(CH2)6CO-PRPWPRP-NH2] (Octanoyl-PRPWPRP-NH2) | >512 µg/mL
